In publication PMC10302582, “Unveiling the Potential of BenzylethyleneAryl–Urea Scaffolds for the Design of New Onco Immunomodulating Agents” (Pharmaceuticals, 2023):

Experiments:
[1] = tested on: HT-29 cells co-cultured with THP-1; test: Cancer cell proliferation in co-cultures of HT-29 and THP-1; format: cell-based, human; settings: 100 μM
Procedure: To establish the potential of the selected compounds as immunomodulator agents, we studied the effect of the selected compounds on HT-29 cell proliferation when co-cultured with human monocytic leukemia cell line THP-1. For the study, we used different proportions of cancer and immune cells. Standard protocol proportions were 1:5 cancer/immune cells. We include a test using a 2:1 proportion of HT-29 cells to THP-1 cells. The tests were performed for two periods of time: 24 and 48 h, using 100 μM doses of the selected compounds and BMS-8 as the reference compound.
(§1) To determine the action of the compounds on cancer cell proliferation in co-culture with immune cells, 10^5 or 2 × 10^5 of the HT-29 cells line were seeded in each well of 12-well plates and left at 37 °C for 24 h. Then, the cancer cells were treated with IFN-γ (10 ng/mL; human, Invitrogen®, Waltham, MA, USA) containing 5 × 10^5 or 10^5, respectively, of THP-1 cells per well and the corresponding compound at 100 μM or DMSO for the positive control. After 24 h/48 h of incubation, the supernatants were collected to establish the alive THP-1 cells using FSC and SCC flow cytometry. In addition, cancer cells were collected with trypsin, fixed with 4% in PBS paraformaldehyde and counted using flow cytometry.

[2] = tested on: HT-29 (colon adenocarcinoma); test: MTT cell proliferation assay, HT-29; format: cell-based; settings: Homo sapiens, HT-29; MTT, 48 h treatment; read-out: IC50 HT-29
Procedure: (§2) After the supernatant was discarded, we solved the formazan crystal in 100 µL of DMSO. The absorbance was then registered at 550 nm using a plate lector. For all concentrations of any compound, cell viability was expressed as the percentage of the ratio between the mean absorbance of the treated cells and the mean absorbance of the untreated cells. Three to five experiments were performed to establish the IC50 values (i.e., concentration half inhibiting cell proliferation, we used GraphPad Prism 7 software).

VEGFR-2 = target: T1, VEGFR-2 (Homo sapiens, UniProt P35968); test: VEGFR-2 relative quantification by flow cytometry in HT-29 cells; format: cell-based; settings: HT-29 cells, 20 μM, 24 h, relative to DMSO control = 100
T1 construct: assess the effect of our new ureas on these two proteins only on the HT-29 cancer cell line through the use of flow cytometry; endogenous in cells; host or cells: HT-29
T1 sequence (P35968 20-1356): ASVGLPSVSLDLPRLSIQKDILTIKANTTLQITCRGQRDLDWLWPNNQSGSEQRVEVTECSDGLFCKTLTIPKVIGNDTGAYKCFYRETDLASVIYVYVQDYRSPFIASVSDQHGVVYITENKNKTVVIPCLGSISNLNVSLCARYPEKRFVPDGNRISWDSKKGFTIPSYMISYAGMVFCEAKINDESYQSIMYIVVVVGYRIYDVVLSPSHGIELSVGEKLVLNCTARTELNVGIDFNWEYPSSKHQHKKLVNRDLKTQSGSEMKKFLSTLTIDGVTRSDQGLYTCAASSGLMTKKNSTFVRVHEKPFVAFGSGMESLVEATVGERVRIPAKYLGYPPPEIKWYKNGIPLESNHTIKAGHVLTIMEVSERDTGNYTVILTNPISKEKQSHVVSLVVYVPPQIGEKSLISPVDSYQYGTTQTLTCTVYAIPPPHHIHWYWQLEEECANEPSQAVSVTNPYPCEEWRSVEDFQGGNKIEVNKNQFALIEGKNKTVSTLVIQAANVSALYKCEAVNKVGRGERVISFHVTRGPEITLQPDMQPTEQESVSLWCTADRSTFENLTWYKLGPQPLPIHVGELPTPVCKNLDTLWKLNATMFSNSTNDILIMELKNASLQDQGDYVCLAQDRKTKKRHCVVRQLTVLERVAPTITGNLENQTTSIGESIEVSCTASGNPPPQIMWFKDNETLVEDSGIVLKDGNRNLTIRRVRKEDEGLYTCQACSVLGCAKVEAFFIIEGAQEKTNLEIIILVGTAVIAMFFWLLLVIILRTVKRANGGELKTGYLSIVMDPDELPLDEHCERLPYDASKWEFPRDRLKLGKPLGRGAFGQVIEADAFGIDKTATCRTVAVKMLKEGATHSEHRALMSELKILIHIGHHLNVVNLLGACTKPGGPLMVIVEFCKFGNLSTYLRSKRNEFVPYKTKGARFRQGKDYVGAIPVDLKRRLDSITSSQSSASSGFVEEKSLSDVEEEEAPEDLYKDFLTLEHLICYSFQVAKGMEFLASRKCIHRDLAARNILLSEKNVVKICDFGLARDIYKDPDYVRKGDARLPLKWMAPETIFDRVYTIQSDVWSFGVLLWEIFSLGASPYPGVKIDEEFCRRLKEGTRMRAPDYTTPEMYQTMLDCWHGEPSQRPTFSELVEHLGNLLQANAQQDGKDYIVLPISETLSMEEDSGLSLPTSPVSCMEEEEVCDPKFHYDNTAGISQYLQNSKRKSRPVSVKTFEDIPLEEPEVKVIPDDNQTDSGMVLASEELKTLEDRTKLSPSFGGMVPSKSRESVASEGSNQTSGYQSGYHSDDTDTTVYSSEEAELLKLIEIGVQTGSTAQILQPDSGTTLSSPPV
Procedure: (§3) The cells were incubated for a period of time of one day with doses of each of the selected compounds at two different doses: 20 and 100 µM concentrations.
(§4) The effects of the compounds on the target in the cancer cell lines compounds were tested using 20 and 100 µM doses. For that, 10^5 cells per well were seeded on a 12-well plate for 24 h with the corresponding dose of the tested compound in a total volume of 500 μL of cell media. To determine the total PD-L1 and VEGFR-2, the cells were collected and fixed with 4% in a PBS of formaldehyde. After this, a treatment with 0.5% in PBS Triton^TM X-100 permeabilized the membranes.
(§5) To determine surface PD-L1 and VEGFR-2, the assay used was similar to the above but avoided the permeabilization step (Triton^TM X-100).

CD80 = CD80 detection on membrane of co-cultured THP-1; format: cell-based, human; settings: 1:5 HT-29/THP-1; 24 h; relative to non-treated co-cultured THP-1
Description: (§6) Reducing the expression of CD11b has become a promising target for immune modulation in anticancer therapies. For that reason, we decided to study the effect of our compounds on CD11b in THP-1 cells co-cultured with HT-29. We also determined the relative amount of CD80, a common surface marker for monocytes.
(§7) The results are related to non-treated THP-1 cells when they were co-cultured with HT-29.
(§8) The action of the compounds on CDs in co-cultured THP-1 immune cells with cancer cell line HT-29 was tested by treating them with the compounds for 24 h/48 h (see Section 4.2.5). Surface CD11b and CD80 was determined by collecting THP-1 with trypsin, fixing with formaldehyde and staining with FITC Mouse monoclonal Anti-Human CD80 (Sigma-Aldrich SAB4700142) and Alexa Fluor® 647 Rabbit monoclonal Anti-CD11b (Merck #MABF366, Rahway, NJ, USA).

[3] = tested on: HEK-293 (human embryonic kidney cells); test: MTT cell proliferation assay, HEK-293; format: cell-based; settings: HEK293, 48 h treatment
Procedure: (§9) The action on cell proliferation caused by our developed compounds was studied using an MTT assay using the human tumor cell lines of HT-29 (colon adenocarcinoma) and A-549 (pulmonary adenocarcinoma), as well as toward the non-tumor cell line HEK-293 (human embryonic kidney cells), Jurkat T-cells and human microvessel endothelial cells (HMEC-1).
(§10) In general, 5 × 10^3 (HT-29, A549, HMEC-1, Jurkat and HEK-293) cells per well were seeded in 96-well plates with 1:1 dilutions of the compounds in a volume of 100 μL of the cell media. The 3-(4,5-dimethylthiazol-2-yl)-2,5-diphenyltetrazolium bromide (MTT; Sigma Chemical Co.) dye exclusion assay was performed, and after 48 h (37 °C, 5% CO2 in a humid atmosphere), 10 μL of MTT (5 mg/mL in phosphate-buffered saline, PBS) was added to each well and incubated for 3 h at 37 °C. After the supernatant was discarded, we solved the formazan crystal in 100 µL of DMSO. The absorbance was then registered at 550 nm using a plate lector. For all concentrations of any compound, cell viability was expressed as the percentage of the ratio between the mean absorbance of the treated cells and the mean absorbance of the untreated cells. Three to five experiments were performed to establish the IC50 values (i.e., concentration half inhibiting cell proliferation, we used GraphPad Prism 7 software).

Jurkat T-cells = test: MTT cell proliferation assay, Jurkat T-cells; format: cell-based; settings: Homo sapiens, Jurkat, 48 h, 48 h treatment
Procedure: as §9, §10

[4] = tested on: THP-1 cells co-cultured with HT-29; test: Immune cell proliferation in co-cultures of HT-29/THP-1; format: cell-based, human; settings: 100 μM
Procedure: We also determined the effect of the selected compounds on the human monocyte cells THP-1 in the described co-cultures (see Table 6).
as §1

[5] = tested on: A-549 (pulmonary adenocarcinoma); test: MTT cell proliferation assay, A-549; format: cell-based; settings: Homo sapiens, A549; MTT, 48 h treatment; read-out: IC50 A-549
Procedure: as §2

CD11b = CD11b detection on membrane of co-cultured THP-1; format: cell-based, human; settings: 1:5 HT-29/THP-1; 24 h; relative to non-treated co-cultured THP-1
Description: as §6, §7, §8

PD-L1 = target: T2, PD-L1 (Homo sapiens, UniProt Q9NZQ7); test: PD-L1 relative quantification by flow cytometry in HT-29 cells; format: cell-based; settings: for total PD-L1 (%) expression: HT-29 cells, 24 h, relative to DMSO control = 100
T2 construct: assess the effect of our new ureas on these two proteins only on the HT-29 cancer cell line through the use of flow cytometry; endogenous in cells; host or cells: HT-29
T2 sequence (Q9NZQ7 19-290): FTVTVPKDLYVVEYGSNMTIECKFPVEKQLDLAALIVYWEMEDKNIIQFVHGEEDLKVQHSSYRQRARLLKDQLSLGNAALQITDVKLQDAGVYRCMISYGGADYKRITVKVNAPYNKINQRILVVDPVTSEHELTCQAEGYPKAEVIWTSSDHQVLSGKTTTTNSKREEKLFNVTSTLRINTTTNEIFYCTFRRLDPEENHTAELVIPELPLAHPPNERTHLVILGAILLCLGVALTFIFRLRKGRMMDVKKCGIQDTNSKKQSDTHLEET
Procedure: as §3
as §4, with “membranes. Finally, the cells were treated with FITC Mouse monoclonal Anti-Human VEGFR-2 (ab184903) and Alexa Fluor® 647 Rabbit monoclonal Anti-PD-L1 (ab215251).” for “membranes.”
as §5

## Cc1c(COc2ccc(CN3CCCCC3C(=O)O)cc2Br)cccc1-c1ccccc1 (stereo not drawn) [BMS-8, reference compound]
[1]; 1:5 HT-29/THP-1, 24 h
  HT-29 cancer cell proliferation in co-culture: 11 ± 6
[1]; 1:5 HT-29/THP-1, 48 h
  HT-29 cancer cell proliferation in co-culture: 21 ± 3
[1]; 2:1 HT-29/THP-1, 24 h
  HT-29 cancer cell proliferation in co-culture: 8 ± 1
[1]; 2:1 HT-29/THP-1, 48 h
  HT-29 cancer cell proliferation in co-culture: 16 ± 2
[2]
  IC50: 19 ± 2 µM
VEGFR-2
  total VEGFR-2 (%) expression: 86 ± 21%
CD80
  % CD80 expression in membrane of THP-1: 93 ± 3%
[3]
  IC50: 60 ± 10 µM
Jurkat T-cells
  IC50: > 100 µM
[4]; 1:5 HT-29/THP-1, 24 h
  THP-1 cell proliferation in co-culture: 158 ± 6
[4]; 1:5 HT-29/THP-1, 48 h
  THP-1 cell proliferation in co-culture: 124 ± 0
[4]; 2:1 HT-29/THP-1, 24 h
  THP-1 cell proliferation in co-culture: 385 ± 12
[4]; 2:1 HT-29/THP-1, 48 h
  THP-1 cell proliferation in co-culture: 186 ± 10
[5]
  IC50: 6 ± 1 µM
CD11b
  % CD11b expression in membrane of THP-1: 79 ± 5%
PD-L1; HT-29, total PD-L1, 20 μM
  inhibition of PD-L1 expression: around 15%
PD-L1; 20 μM
  total PD-L1 (%) expression: 82 ± 21%
PD-L1; 100 μM
  total PD-L1 (%) expression: 67 ± 20%
